# Test results from PubChem BioAssay (NCI).
#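 1) Cells in 96-well plates. 2) Compound, 48 h, 5 concentrations. 3) Linear interpolation between surrounding doses. 4) Unreached endpoint = highest concentration. At the TGI there is no net growth.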
# Assays:
# Experiment in all cases: inhibition of tumour cell growth, NCI panel, 48 h
# M19-MEL melanoma = system: M19-MEL melanoma
# MOLT-4 leukemia = system: MOLT-4 leukemia
# HCC-2998 colon = system: HCC-2998 colon
# DMS 273 small cell lung = system: DMS 273 small cell lung
# HT29 colon = system: HT29 colon
# SK-MEL-2 melanoma = system: SK-MEL-2 melanoma
# SR leukemia = system: SR leukemia
# SNB-75 CNS = system: SNB-75 CNS
# HL-60(TB) leukemia = system: HL-60(TB) leukemia
# OVCAR-3 ovarian = system: OVCAR-3 ovarian
# SK-MEL-5 melanoma = system: SK-MEL-5 melanoma
# KM20L2 colon = system: KM20L2 colon
# MALME-3M melanoma = system: MALME-3M melanoma
# HOP-62 NSCLC = system: HOP-62 NSCLC
# TK-10 renal = system: TK-10 renal
# UACC-62 melanoma = system: UACC-62 melanoma
# A549 NSCLC = system: A549 NSCLC
# NCI-H23 lung = system: NCI-H23 lung
# XF 498 CNS = system: XF 498 CNS
# IGROV1 ovarian = system: IGROV1 ovarian
# K-562 leukemia = system: K-562 leukemia
# 786-0 renal = system: 786-0 renal
# SF-539 CNS = system: SF-539 CNS
# CCRF-CEM leukemia = system: CCRF-CEM leukemia
# NCI-H226 lung = system: NCI-H226 lung
# SK-OV-3 ovarian = system: SK-OV-3 ovarian
# LOX IMVI melanoma = system: LOX IMVI melanoma
# LXFL 529 NSCLC = system: LXFL 529 NSCLC
# KM12 colon = system: KM12 colon
# SF-268 CNS = system: SF-268 CNS
# NCI-H460 lung = system: NCI-H460 lung
# RXF 393 renal = system: RXF 393 renal
# SF-295 CNS = system: SF-295 CNS
# SW-620 colon = system: SW-620 colon
# UACC-257 melanoma = system: UACC-257 melanoma
# SK-MEL-28 melanoma = system: SK-MEL-28 melanoma
# OVCAR-4 ovarian = system: OVCAR-4 ovarian
# OVCAR-8 ovarian = system: OVCAR-8 ovarian
# UO-31 renal = system: UO-31 renal
# HCT-15 colon = system: HCT-15 colon
# DLD-1 colon = system: DLD-1 colon
# SN12C renal = system: SN12C renal
# M14 melanoma = system: M14 melanoma
# SNB-19 CNS = system: SNB-19 CNS
# EKVX NSCLC = system: EKVX NSCLC
# ACHN renal = system: ACHN renal
# SNB-78 CNS = system: SNB-78 CNS
# COLO 205 colon = system: COLO 205 colon
# HCT-116 colon = system: HCT-116 colon
# NCI-H522 lung = system: NCI-H522 lung
# U251 CNS = system: U251 CNS
# CAKI-1 renal = system: CAKI-1 renal
# HOP-92 NSCLC = system: HOP-92 NSCLC
# A498 renal = system: A498 renal
# RXF-631 renal = system: RXF-631 renal
# DMS 114 small cell lung = system: DMS 114 small cell lung
# RPMI-8226 leukemia = system: RPMI-8226 leukemia
# OVCAR-5 ovarian = system: OVCAR-5 ovarian
# HOP-18 NSCLC = system: HOP-18 NSCLC
smiles,measurement,setting,value
CCC(C)CNC1=C(NC(C)=O)C(=O)c2ccccc2C1=O (centres undefined),TGI,M19-MEL melanoma,42.6 µM
same,TGI,MOLT-4 leukemia,> 100 µM
same,TGI,HCC-2998 colon,> 100 µM
same,TGI,DMS 273 small cell lung,> 100 µM
same,TGI,HT29 colon,> 100 µM
same,TGI,SK-MEL-2 melanoma,> 100 µM
same,TGI,SR leukemia,> 100 µM
same,TGI,SNB-75 CNS,> 100 µM
same,TGI,HL-60(TB) leukemia,> 100 µM
same,TGI,OVCAR-3 ovarian,> 100 µM
same,TGI,SK-MEL-5 melanoma,> 100 µM
same,TGI,KM20L2 colon,> 100 µM
same,TGI,MALME-3M melanoma,> 100 µM
same,TGI,HOP-62 NSCLC,> 100 µM
same,TGI,TK-10 renal,> 100 µM
same,TGI,UACC-62 melanoma,> 100 µM
same,TGI,A549 NSCLC,> 100 µM
same,TGI,NCI-H23 lung,> 100 µM
same,TGI,XF 498 CNS,> 100 µM
same,TGI,IGROV1 ovarian,> 100 µM
same,TGI,K-562 leukemia,> 100 µM
same,TGI,786-0 renal,> 100 µM
same,TGI,SF-539 CNS,> 100 µM
same,TGI,CCRF-CEM leukemia,> 100 µM
same,TGI,NCI-H226 lung,> 100 µM
same,TGI,SK-OV-3 ovarian,> 100 µM
same,TGI,LOX IMVI melanoma,> 100 µM
same,TGI,LXFL 529 NSCLC,> 100 µM
same,TGI,KM12 colon,> 100 µM
same,TGI,SF-268 CNS,> 100 µM
same,TGI,NCI-H460 lung,> 100 µM
same,TGI,RXF 393 renal,> 100 µM
same,TGI,SF-295 CNS,> 100 µM
same,TGI,SW-620 colon,> 100 µM
same,TGI,UACC-257 melanoma,> 100 µM
same,TGI,SK-MEL-28 melanoma,> 100 µM
same,TGI,OVCAR-4 ovarian,> 100 µM
same,TGI,OVCAR-8 ovarian,> 100 µM
same,TGI,UO-31 renal,> 100 µM
same,TGI,HCT-15 colon,> 100 µM
same,TGI,DLD-1 colon,> 100 µM
same,TGI,SN12C renal,> 100 µM
same,TGI,M14 melanoma,> 100 µM
same,TGI,SNB-19 CNS,> 100 µM
same,TGI,EKVX NSCLC,> 100 µM
same,TGI,ACHN renal,> 100 µM
same,TGI,SNB-78 CNS,> 100 µM
same,TGI,COLO 205 colon,> 100 µM
same,TGI,HCT-116 colon,> 100 µM
same,TGI,NCI-H522 lung,> 100 µM
same,TGI,U251 CNS,> 100 µM
COc1ccc(-c2cc(-c3ccco3)c(C#N)c(=O)n2C2OC(OC(=O)c3ccccc3)C(OC(=O)c3ccccc3)C2OC(=O)c2ccccc2)cc1 (centres undefined),TGI,M19-MEL melanoma,> 100 µM
same,TGI,MOLT-4 leukemia,> 100 µM
same,TGI,HCC-2998 colon,> 100 µM
same,TGI,CAKI-1 renal,> 100 µM
same,TGI,DMS 273 small cell lung,> 100 µM
same,TGI,HT29 colon,> 100 µM
same,TGI,SK-MEL-2 melanoma,> 100 µM
same,TGI,SR leukemia,> 100 µM
same,TGI,SNB-75 CNS,> 100 µM
same,TGI,OVCAR-3 ovarian,> 100 µM
same,TGI,SK-MEL-5 melanoma,> 100 µM
same,TGI,KM20L2 colon,> 100 µM
same,TGI,MALME-3M melanoma,> 100 µM
same,TGI,HOP-62 NSCLC,> 100 µM
same,TGI,TK-10 renal,54.7 µM
same,TGI,HOP-92 NSCLC,54.5 µM
same,TGI,NCI-H23 lung,> 100 µM
same,TGI,A498 renal,> 100 µM
same,TGI,IGROV1 ovarian,> 100 µM
same,TGI,K-562 leukemia,> 100 µM
same,TGI,786-0 renal,> 100 µM
same,TGI,SF-539 CNS,> 100 µM
same,TGI,CCRF-CEM leukemia,> 100 µM
same,TGI,NCI-H226 lung,> 100 µM
same,TGI,LOX IMVI melanoma,> 100 µM
same,TGI,LXFL 529 NSCLC,> 100 µM
same,TGI,RXF-631 renal,> 100 µM
same,TGI,KM12 colon,> 100 µM
same,TGI,NCI-H460 lung,> 100 µM
same,TGI,RXF 393 renal,63.7 µM
same,TGI,DMS 114 small cell lung,> 100 µM
same,TGI,SF-295 CNS,> 100 µM
same,TGI,SW-620 colon,> 100 µM
same,TGI,RPMI-8226 leukemia,> 100 µM
same,TGI,OVCAR-5 ovarian,> 100 µM
same,TGI,UACC-257 melanoma,> 100 µM
same,TGI,SK-MEL-28 melanoma,> 100 µM
same,TGI,OVCAR-4 ovarian,> 100 µM
same,TGI,OVCAR-8 ovarian,> 100 µM
same,TGI,UO-31 renal,> 100 µM
same,TGI,HCT-15 colon,> 100 µM
same,TGI,HOP-18 NSCLC,> 100 µM
same,TGI,DLD-1 colon,> 100 µM
same,TGI,SN12C renal,> 100 µM
same,TGI,M14 melanoma,> 100 µM
same,TGI,SNB-19 CNS,> 100 µM
same,TGI,EKVX NSCLC,> 100 µM
same,TGI,ACHN renal,> 100 µM
same,TGI,SNB-78 CNS,> 100 µM
same,TGI,COLO 205 colon,> 100 µM
same,TGI,HCT-116 colon,> 100 µM
same,TGI,NCI-H522 lung,> 100 µM
same,TGI,U251 CNS,> 100 µM
CCCCCCCCOCC(O)COC (centres undefined),TGI,M19-MEL melanoma,> 100 µM
same,TGI,MOLT-4 leukemia,> 100 µM
same,TGI,HCC-2998 colon,> 100 µM
same,TGI,CAKI-1 renal,> 100 µM
same,TGI,DMS 273 small cell lung,> 100 µM
same,TGI,HT29 colon,> 100 µM
same,TGI,SR leukemia,> 100 µM
same,TGI,HL-60(TB) leukemia,> 100 µM
same,TGI,OVCAR-3 ovarian,> 100 µM
same,TGI,SK-MEL-5 melanoma,> 100 µM
same,TGI,MALME-3M melanoma,> 100 µM
same,TGI,HOP-62 NSCLC,> 100 µM
same,TGI,TK-10 renal,> 100 µM
same,TGI,UACC-62 melanoma,> 100 µM
same,TGI,A549 NSCLC,> 100 µM
same,TGI,HOP-92 NSCLC,> 100 µM
same,TGI,NCI-H23 lung,> 100 µM
same,TGI,A498 renal,> 100 µM
same,TGI,IGROV1 ovarian,> 100 µM
same,TGI,K-562 leukemia,> 100 µM
same,TGI,786-0 renal,> 100 µM
same,TGI,CCRF-CEM leukemia,> 100 µM
same,TGI,NCI-H226 lung,> 100 µM
same,TGI,SK-OV-3 ovarian,> 100 µM
same,TGI,LOX IMVI melanoma,> 100 µM
same,TGI,LXFL 529 NSCLC,> 100 µM
same,TGI,SF-268 CNS,> 100 µM
same,TGI,NCI-H460 lung,> 100 µM
same,TGI,DMS 114 small cell lung,> 100 µM
same,TGI,SF-295 CNS,> 100 µM
same,TGI,SW-620 colon,> 100 µM
same,TGI,RPMI-8226 leukemia,> 100 µM
same,TGI,OVCAR-5 ovarian,> 100 µM
same,TGI,UACC-257 melanoma,> 100 µM
same,TGI,SK-MEL-28 melanoma,> 100 µM
same,TGI,OVCAR-4 ovarian,> 100 µM
same,TGI,OVCAR-8 ovarian,> 100 µM
same,TGI,UO-31 renal,> 100 µM
same,TGI,HCT-15 colon,> 100 µM
same,TGI,HOP-18 NSCLC,> 100 µM
same,TGI,DLD-1 colon,> 100 µM
same,TGI,SN12C renal,> 100 µM
same,TGI,M14 melanoma,> 100 µM
same,TGI,SNB-19 CNS,> 100 µM
same,TGI,ACHN renal,> 100 µM
same,TGI,COLO 205 colon,> 100 µM
same,TGI,HCT-116 colon,> 100 µM
same,TGI,U251 CNS,> 100 µM
CCOc1ccccc1NC(=O)C(=O)C1C(=O)Nc2ccccc2S1=O (centres undefined),TGI,MOLT-4 leukemia,> 100 µM
same,TGI,HCC-2998 colon,> 100 µM
same,TGI,DMS 273 small cell lung,> 100 µM
same,TGI,SK-MEL-2 melanoma,> 100 µM
same,TGI,HL-60(TB) leukemia,> 100 µM
same,TGI,OVCAR-3 ovarian,> 100 µM
same,TGI,MALME-3M melanoma,> 100 µM
same,TGI,A549 NSCLC,> 100 µM
same,TGI,K-562 leukemia,> 100 µM
same,TGI,786-0 renal,> 100 µM
same,TGI,CCRF-CEM leukemia,> 100 µM
same,TGI,SK-OV-3 ovarian,> 100 µM
same,TGI,LXFL 529 NSCLC,> 100 µM
same,TGI,SF-268 CNS,> 100 µM
same,TGI,NCI-H460 lung,> 100 µM
same,TGI,RXF 393 renal,> 100 µM
same,TGI,DMS 114 small cell lung,> 100 µM
same,TGI,RPMI-8226 leukemia,> 100 µM
same,TGI,SK-MEL-28 melanoma,> 100 µM
same,TGI,UO-31 renal,> 100 µM
same,TGI,HCT-15 colon,> 100 µM
same,TGI,HOP-18 NSCLC,> 100 µM
same,TGI,M14 melanoma,> 100 µM
same,TGI,SNB-78 CNS,> 100 µM
same,TGI,HCT-116 colon,> 100 µM
same,TGI,NCI-H522 lung,> 100 µM
same,TGI,U251 CNS,> 100 µM
